# Experimental data reported in patent US20080039531A1, “Compositions, and kits comprising targeted aldehyde or acetal protease inhibitor compounds for treating muscle disorders” (priority 2005, published 2008).
# Entries after “also recorded” stand apart in the source; their conditions may differ.
# Columns and labels:
# [1] = test system: Calpain; assay: Monkey study, intramuscular leupeptin: muscle calpain activities; assay type: in vivo, Cebus apella; conditions: right, nerve-repaired opponens and abductor muscles, 12 and 24 weeks
# Description: (§1) In order to test the hypothesis that in vivo inhibition of calpains by leupeptin can facilitate neuromuscular recovery by inhibiting denervation atrophy of the skeletal-muscle target after complete peripheral nerve transection and delayed nerve repair (7), a monkey study (Cebus apella) was undertaken. This median-nerve model was chosen to approximate human anatomic and regenerative aspects.
# [2] = test system: opponens pollicis and abductor pollicis myofibers; assay: Monkey study, oral leupeptin: myofiber diameter after median nerve repair; assay type: in vivo, monkeys; conditions: for percentage atrophy: loss of myofiber diameter vs left, unoperated control group: 3 months post nerve repair
# Description: (§2) Subsequent to the above studies another series of experiments were performed on the monkeys to assess another route of leupeptin administration in these animals (8). In this regard, oral delivery of leupeptin, after median nerve transection and epineural nerve repair, was studied for its potential benefits to neuromuscular recovery. […] When plasma leupeptin concentrations were 3 mg or greater, morphologic and functional motor recovery were facilitated after nerve repair.
# When expressed as a percentage atrophy, in comparison to the left, unoperated control group, the right control group lost 63 percent of its myofiber diameter; the 3-mg group lost 53% of its myofiber diameter; the 6-mg group 23%; the 12-mg group 11%; and the 18-mg group only 8%.
# [3] = Monkey study, intramuscular leupeptin: toxicology and echocardiograms; assay type: in vivo, Cebus apella
# Description: as §1
# Complete blood counts and clotting times after intramuscular leupeptin administration at 18 mg/kg, twice daily for 24 weeks, were not affected in treated animals, when compared to controls. In controls, mean values were as follows: WBC=4.83±1.04×10^3; RBC=5.34±0.34×10^6; hematocrit=37.97%±2.09; platelets=3.30±0.05×10^5; prothrombin time=9.68±0.36 sec; partial thromboplastin time=28.78±1.32 sec. In treated animals, mean values were: WBC=6.67±2.26×10^3; RBC=5.55±0.26×10^6; hematocrit=38.18%+1.69; platelets 4.33±0.18×10^5; prothrombin time=10.88±0.49 sec; partial thromboplastin time=33.06±0.76 sec.
# Echocardiograms: To assure that leupeptin was causing no pathological effects on heart muscle, the cardiac lateral wall and septum were measured in millimeters in all animals prior to leupeptin treatment and 25 weeks after delayed nerve repair. Prior to treatment, in animals designated as controls, the lateral wall was 2.88±0.33 mm and the septum was 2.84±0.2 mm. Twenty-five weeks later in control animals, the lateral wall was 3.0±0.5 mm and the septum was 2.9±0.2 mm. Prior to treatment, in animals designated to receive leupeptin, the lateral wall was 3.5±0.2 mm and the septum was 2.9±0.4 mm. Twenty-five weeks later, in leupeptin-treated animals, the lateral wall was 3.2±0.1 mm and the septum was 2.8±0.3 mm. Importantly, there were no significant statistical differences within either the control or treatment groups or between the control and treatment groups (data not shown).
# [4] = Monkey study, oral leupeptin: hematology, blood clotting, serum biochemistry; assay type: in vivo; conditions: monkeys, oral leupeptin 3, 6, 12, 18 mg/kg twice daily for 6 months after nerve repair
# Description: as §2
# Hematology/blood chemistry. Blood was drawn from the femoral vein at 1, 3, 4, 5, and 7 months postoperatively. Complete blood counts, clotting parameters, and serum chemistries in control animals and in animals after oral leupeptin administration at 3, 6, 12, and 18 mg/kg were quantified. Values were determined for hemoglobin, hematocrit, WBC, RBC, MCV, MCH, MCHC, differential (polymorphonuclear leukocytes, lymphocytes, monocytes, eosinophils, basophils), platelets, prothrombin time, partial thromboplastin time, glucose, urea nitrogen, creatinine, total protein, albumin, total bilirubin, alkaline phosphatase, SGPT, SGOT, lactic dehydrogenase, cholesterol, calcium, phosphorus, sodium, potassium, chloride, A/G, BUN/creatinine, globulin, amylase.
# [5] = leupeptin-treated monkeys, twenty-five weeks after delayed nerve repair
# [6] = monkeys, intramuscular leupeptin 18 mg/kg twice daily for 24 weeks
smiles,measurement,setting,value
CC(=O)N[C@@H](CC(C)C)C(=O)N[C@@H](CC(C)C)C(=O)N[C@H](C=O)CCCNC(=N)N [Leupeptin],mean increase of calpain activities in control animals compared to leupeptin treated animals,[1],50%
same,mean myofiber diameter vs left control group,"[2]; left abductor pollicis, 6 months, 6-mg, 12-mg, 18-mg groups, p<0.01 (FIG. 5)",small but significant increase
same,mean myofiber diameter vs right control group,"[2]; right abductor pollicis, 6 months after nerve repair, 6-mg, 12-mg, 18-mg groups, p<0.01 (FIG. 5)",significant increase
same,"percent atrophy: loss of myofiber diameter vs left, unoperated abductor pollicis","[2]; right abductor pollicis, 6 months after nerve repair, oral leupeptin 3-mg group",30%
same,"percent atrophy: loss of myofiber diameter vs left, unoperated abductor pollicis","[2]; right abductor pollicis, 6 months after nerve repair, oral leupeptin 6-mg group",5%
same,"increase in myofiber diameter (no atrophy) vs left, unoperated abductor pollicis","[2]; right abductor pollicis, 6 months after nerve repair, oral leupeptin 12-mg group",1.2%
same,"increase in myofiber diameter (no atrophy) vs left, unoperated abductor pollicis","[2]; right abductor pollicis, 6 months after nerve repair, oral leupeptin 18-mg group",1.3%
same,mean myofiber diameter vs right control group,"[2]; right opponens pollicis, 3 months after nerve repair, all leupeptin treatment groups, p<0.01 (FIG. 4)",significant increase
same,"percentage atrophy: loss of myofiber diameter vs left, unoperated control group","[2]; right opponens pollicis, oral leupeptin 3-mg group",53%
same,"percentage atrophy: loss of myofiber diameter vs left, unoperated control group","[2]; right opponens pollicis, oral leupeptin 6-mg group",23%
same,"percentage atrophy: loss of myofiber diameter vs left, unoperated control group","[2]; right opponens pollicis, oral leupeptin 12-mg group",11%
same,"percentage atrophy: loss of myofiber diameter vs left, unoperated control group","[2]; right opponens pollicis, oral leupeptin 18-mg group",8%
same,cardiac lateral wall (echocardiogram),[3]; [5],3.2±0.1 mm
same,cardiac septum (echocardiogram),[3]; [5],2.8±0.3 mm
same,RBC,[3]; [6],5.55±0.26×10^6
same,WBC,[3]; [6],6.67±2.26×10^3
same,"blood chemistry analyses, treated vs control",[3]; [6],no significant differences between treated and control animals
same,hematocrit,[3]; [6],38.18%
same,partial thromboplastin time,[3]; [6],33.06 ± 0.76 s
same,platelets,[3]; [6],4.33±0.18×10^5
same,prothrombin time,[3]; [6],10.88 ± 0.49 s
same,"hematology, blood clotting and serum biochemistry",[4],no adverse effects; also recorded: no significant differences
